Laboratory results: patent publication US20110160272A1, “METHODS AND COMPOSITIONS FOR USE OF ANGIOGENESIS INHIBITORS IN THE PREVENTION AND/OR CONTROL OF EPILEPSY” (priority 2004, published 2011)

System: KASE rats
Assay: Effect of angiogenesis inhibitor on spontaneous seizure development after kainic acid-induced status epilepticus (KASE)
Type: in vivo, rat
Details: KASE rats (n=4); twice daily injections for fourteen consecutive days beginning one week following KASE; first three weeks of monitoring, daily 8-hour observation sessions; relative to untreated KASE or control rats
Source text: We have administered HET0016, an inhibitor of angiogenesis, during the “latent period” that follows KASE and precedes the emergence of spontaneous seizures, to assess whether the development of spontaneous seizures could be impeded. Optimal doses for achieving antiangiogenesis have been established for some of these compounds in other pathological contexts and we have acquired some knowledge of the progression of angiogenesis following KASE using our temporal BrdU assay. On the basis of these observations, we administered a proven antiangiogenic compound at the optimal dosage established in other pathological contexts. This compound was administered to KASE rats (n=4) via twice daily injections for fourteen consecutive days, beginning one week following KASE. Four untreated KASE rats (n=4) received sham injections of diluent and were processed in parallel. Control rats (n=2) received neither KASE nor antiangiogenic therapy. The occurrence of spontaneous seizures in these cohorts was monitored during daily during 8-hour observation sessions beginning one week following KASE, and continues to the present.

CCCCc1ccc(N=CNO)c(C)c1 [HET0016]
development of spontaneous seizures (cumulative seizures, FIG. 7): impeded the development of spontaneous seizures
